A short description of data set [1]: Microsomal stability assay, mouse liver microsomes. The conditions noted are these: for microsomal CLint at 0.1 uM: male, CD-1, mouse, liver microsomes, pH 7.4, Microsomal Stability Mouse Clint, 0.1 mg/mL microsomes, 0.1 uM compound.
Data set [2] has as its target T1, DNA-PK (Homo sapiens, UniProt P78527).
T1 construct: purchased Invitrogen PR9107A
Kind of data set: DNA-PK Assay for Biochemical Enzymatic Inhibition (ADP Glo Kinase assay). To be noted: Table 1. Put shortly:
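Human DNA-PK (25 ng) preincubated 15 min with compounds (ten three-fold dilutions) in HEPES pH 7.5, MgCl2, KCl, calf thymus DNA buffer, then substrate 434.4 μM and ATP 64.4 μM (final) for 60 min at room temperature. ADP-Glo luminescence; percent inhibition fitted by four-parameter regression for IC50.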

In data set [3] the target is T2, DNA-PK phosphorylation at Serine 2056 (Homo sapiens, UniProt P78527).
T2 construct: host or cells: FaDu
In words: Cellular Assay for Inhibition of DNA-PK Phosphorylation at Serine 2056 (FaDu cells, neocarzinostatin, sandwich ELISA). To be noted: Table 1. It is filed as cell-based. Put shortly:
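Readout was pSer2056 and total DNA-PK, measured by sandwich ELISA on protein-normalized lysates. Prior to lysis, compound was applied to FaDu cells for 1 h (0.3% DMSO), followed by 2 h of 1 μg/mL neocarzinostatin. IC50 values were fitted from log concentration versus % inhibition normalized to DMSO and NCS controls.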

The target in data set [4] is T3, pDNA-PK ser2056 induction in HCT116 spheroids (Homo sapiens, UniProt P78527).
T3 construct: endogenous in cells; host or cells: HCT116 multicellular tumour spheroids
In words: Multicellular tumour spheroid + radiation, pDNA-PK inhibition, HCT116. The conditions noted are these: 20 Gy. It is filed as cell-based. Summed up: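 EC50 (μM) is concentration halving radiation-induced pDNA-PK ser2056, scored by fluorescent immunostaining of cryosections 2 h after 20 Gy. HCT116 tumour spheroids (~0.5 mm, stirred, 20% O2/5% CO2, 37 °C) exposed to serial dilutions from 10 or 5 μM to 3.5 nM starting 1 h before irradiation.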

The mark [5] stands for this setting: Example 7, spheroid, cell line HCT115 [sic], 20% O2, read-out: EC50 (pDNA-PK inhibition, immunohistochemical endpoint).
Setting [6] is: Example 8, spheroid, read-out: Cell line: HCT116 Immunohistochemical endpoint pDNA-PK inhibition EC50.
[7] abbreviates: Example 9 Study 2, 20% O2, read-out: Spheroid Cell line: HCT116 Immunohistochemical endpoint pDNA-PK inhibition EC50.

Structures are written as SMILES. Like-named read-outs stand apart in the source and are kept apart here.

Regarding `O=C(N[C@H]1CC[C@@H](Oc2nc(N3CCOCC3)cc3ncccc23)CC1)C1CC1` [Compound 108, N-((1s,4s)-4-((7-Morpholino-1,6-naphthyridin-5-yl)oxy)cyclohexyl)cyclopropanecarboxamide], the “Microsomal Stability (mouse) % rem. 60 min” value in data set [1] is recorded as “E (% remaining = 0-25%)”. The microsomal CLint at 0.1 uM in data set [1] was above 116 µL/min/mg. In addition, the IC50 was 1 to 10 nM in data set [2] and 100 to 1000 nM in data set [3]. The EC50 in data set [4] (setting [5]), in data set [4] (setting [6]) and in data set [4] (setting [7]) was 1000 to 10000 nM throughout.
As to `O=C(N[C@H]1CC[C@@H](Oc2nc(N3CCOCC3)cc3ncccc23)CC1)C1(O)CC1` [Compound 109, 1-Hydroxy-N-((1s,4s)-4-((7-morpholino-1,6-naphthyridin-5-yl)oxy)cyclohexyl)cyclopropane-1-carboxamide], the “Microsomal Stability (mouse) % rem. 60 min” value in data set [1] is on record as “E (% remaining = 0-25%)”. In data set [1], this molecule registered a microsomal CLint at 0.1 uM above 116 µL/min/mg. In addition, the concentration for half-maximal inhibition (IC50) fell in the range of 1 to 10 nM in data set [2] and 100 to 1000 nM in data set [3]. Moreover, the concentration giving a half-maximal response (EC50) in data set [4] (setting [5]), in data set [4] (setting [6]) and in data set [4] (setting [7]) was 10000 to 100000 nM in each case.
`O=C(N[C@H]1CC[C@@H](Oc2nc(N3CCOCC3)cc3ncccc23)CC1)c1ccccn1` [Compound 114, N-((1s,4s)-4-((7-morpholino-1,6-naphthyridin-5-yl)oxy)cyclohexyl)picolinamide]: in data set [1], the “Microsomal Stability (mouse) % rem. 60 min” value is on record as “E (% remaining = 0-25%)”. This molecule also showed a microsomal CLint at 0.1 uM in data set [1] above 116 µL/min/mg. Further, the IC50 in data set [2] is 0.5 to 1 nM; in data set [3], 100 to 1000 nM. The EC50 in data set [4] (setting [5]) and in data set [4] (setting [7]) was 1000 to 10000 nM throughout.
As for `O=C(N[C@H]1CC[C@@H](Oc2nc(N3CCOCC3)cc3ncccc23)CC1)c1ccc(Cl)nc1` [Compound 116, 6-chloro-N-((1s,4s)-4-((7-morpholino-1,6-naphthyridin-5-yl)oxy)cyclohexyl)nicotinamide], the “Microsomal Stability (mouse) % rem. 60 min” value in data set [1] is on record as “F (% remaining = 25-50%)”. The molecule also showed an intrinsic clearance (microsomal CLint) at 0.1 uM in data set [1] above 116 µL/min/mg. Moreover, the results for the IC50 in data set [2] and in data set [3] were 0.5 to 1 nM and 100 to 1000 nM, respectively. In addition, the EC50 in data set [4] (setting [5]) and in data set [4] (setting [7]) was 1000 to 10000 nM throughout.
`O=C(N[C@H]1CC[C@@H](Oc2nc(N3CCOCC3)cc3ncccc23)CC1)c1cnccn1` [Compound 119, N-((1s,4s)-4-((7-morpholino-1,6-naphthyridin-5-yl)oxy)cyclohexyl)pyrazine-2-carboxamide]: the “Microsomal Stability (mouse) % rem. 60 min” value in data set [1] was “E (% remaining = 0-25%)”. The same molecule gave a microsomal CLint at 0.1 uM in data set [1] above 116 µL/min/mg. For the same molecule, the concentration for half-maximal inhibition (IC50) in data set [2] was in the range of 0.5 to 1 nM; in data set [3] it was 100 to 1000 nM. Besides, the concentration for a half-maximal effect (EC50) in data set [4] (setting [5]) and in data set [4] (setting [7]) was 1000 to 10000 nM in each case.
As to `O=C(N[C@H]1CC[C@@H](Oc2nc(N3CCOCC3)cc3ncccc23)CC1)c1ncc(Cl)cn1` [Compound 124, 5-chloro-N-((1s,4s)-4-((7-morpholino-1,6-naphthyridin-5-yl)oxy)cyclohexyl)pyrimidine-2-carboxamide], the “Microsomal Stability (mouse) % rem. 60 min” value in data set [1] is “F (% remaining = 25-50%)”. In data set [1], this molecule displayed a microsomal CLint at 0.1 uM above 116 µL/min/mg. Moreover, the IC50 in data set [2] fell in the range of 0.5 to 1 nM; in data set [3], 100 to 1000 nM. Also, the 50% effective concentration (EC50) in data set [4] (setting [5]) and in data set [4] (setting [7]) was 1000 to 10000 nM in each case.
Turning to `Cc1ccnc(C(=O)N[C@H]2CC[C@@H](Oc3nc(N4CCOCC4)cc4ncccc34)CC2)n1` [Compound 127], the “Microsomal Stability (mouse) % rem. 60 min” value in data set [1] is reported as “F (% remaining = 25-50%)”. For the same molecule, in data set [1], the intrinsic clearance (microsomal CLint) at 0.1 uM is above 116 µL/min/mg. In addition, the IC50 in data set [2] lay within 0.5 to 1 nM; in data set [3], 100 to 1000 nM. Further, the 50% effective concentration (EC50) in data set [4] (setting [5]) and in data set [4] (setting [7]) was 1000 to 10000 nM throughout.
`Cc1cnc(C(=O)N[C@H]2CC[C@@H](Oc3nc(N4CCOCC4)cc4ncccc34)CC2)nc1` [Compound 128, 5-methyl-N-((1s,4s)-4-((7-morpholino-1,6-naphthyridin-5-yl)oxy)cyclohexyl)pyrimidine-2-carboxamide]: in data set [1], the “Microsomal Stability (mouse) % rem. 60 min” value is reported as “F (% remaining = 25-50%)”. Also, in data set [1], the intrinsic clearance (microsomal CLint) at 0.1 uM is above 116 µL/min/mg. Further, the values for the IC50 in data set [2] and in data set [3] were 0.5 to 1 nM and 100 to 1000 nM, respectively. The EC50 in data set [4] (setting [5]) and in data set [4] (setting [7]) was 1000 to 10000 nM each time.
In the case of `O=C(N[C@H]1CC[C@@H](Oc2nc(N3CCOCC3)cc3ncccc23)CC1)n1cccn1` [Compound 136, N-((1s,4s)-4-((7-morpholino-1,6-naphthyridin-5-yl)oxy)cyclohexyl)-1H-pyrazole-1-carboxamide], in data set [1], the “Microsomal Stability (mouse) % rem. 60 min” value is reported as “E (% remaining = 0-25%)”. Moreover, the microsomal CLint at 0.1 uM in data set [1] was above 116 µL/min/mg. In addition, the half-maximal inhibitory concentration (IC50) is 0.5 to 1 nM in data set [2] and 100 to 1000 nM in data set [3]. The half-maximal effective concentration (EC50) in data set [4] (setting [5]) and in data set [4] (setting [7]) was 1000 to 10000 nM throughout.
In the case of `O=C(N[C@H]1CC[C@@H](Oc2nc(N3CCOCC3)cc3ncccc23)CC1)c1cc[nH]n1` [Compound 138, N-((1s,4s)-4-((7-morpholino-1,6-naphthyridin-5-yl)oxy)cyclohexyl)-1H-pyrazole-3-carboxamide], the “Microsomal Stability (mouse) % rem. 60 min” value in data set [1] is “E (% remaining = 0-25%)”. This molecule also gave a microsomal CLint at 0.1 uM in data set [1] above 116 µL/min/mg. Also, the half-maximal inhibitory concentration (IC50) in data set [2] was in the range of 0.5 to 1 nM; in data set [3], 100 to 1000 nM. Moreover, the EC50 in data set [4] (setting [5]) and in data set [4] (setting [7]) was 500 to 1000 nM throughout.
In the case of `O=C(N[C@H]1CC[C@@H](Oc2nc(N3CCOCC3)cc3ncccc23)CC1)c1scnc1Cl` [Compound 139, 4-chloro-N-((1s,4s)-4-((7-morpholino-1,6-naphthyridin-5-yl)oxy)cyclohexyl)thiazole-5-carboxamide], the “Microsomal Stability (mouse) % rem. 60 min” value in data set [1] is “G (% remaining = 50-75%)”. In data set [1], the intrinsic metabolic clearance (microsomal CLint) at 0.1 uM was below 116 µL/min/mg. Also, the IC50 is 1 to 10 nM in data set [2] and 100 to 1000 nM in data set [3]. The half-maximal effective concentration (EC50) in data set [4] (setting [5]) and in data set [4] (setting [7]) was 10000 to 100000 nM each time.
Consider `O=C(N[C@H]1CC[C@@H](Oc2nc(N3CCOCC3)cc3ncccc23)CC1)c1ncc[nH]1` [Compound 143, N-((1s,4s)-4-((7-morpholino-1,6-naphthyridin-5-yl)oxy)cyclohexyl)-1H-imidazole-2-carboxamide], for which the “Microsomal Stability (mouse) % rem. 60 min” value in data set [1] is given as “E (% remaining = 0-25%)”. In data set [1], this molecule registered an intrinsic clearance (microsomal CLint) at 0.1 uM above 116 µL/min/mg. In addition, the figures for the IC50 in data set [2] and in data set [3] were below 0.5 nM and below 100 nM, respectively. Moreover, the EC50 in data set [4] (setting [5]) and in data set [4] (setting [7]) was 500 to 1000 nM throughout.
On to `O=C(N[C@H]1CC[C@@H](Oc2nc(N3CCOCC3)cc3ncccc23)CC1)c1ccc[nH]1` [Compound 145], for which, in data set [1], the “Microsomal Stability (mouse) % rem. 60 min” value was “E (% remaining = 0-25%)”. In addition, the microsomal CLint at 0.1 uM in data set [1] is above 116 µL/min/mg. For the same molecule, the figures for the IC50 in data set [2] and in data set [3] were 0.5 to 1 nM and below 100 nM, respectively. Further, the EC50 in data set [4] (setting [5]) and in data set [4] (setting [7]) was 10 to 500 nM in each case.
Regarding `Nc1cnc2cc(N3CCOCC3)nc(O[C@H]3CC[C@@H](Nc4ncccn4)CC3)c2c1` [Compound 184, 7-morpholino-5-(((1s,4s)-4-(pyrimidin-2-ylamino)cyclohexyl)oxy)-1,6-naphthyridin-3-amine], in data set [1], the “Microsomal Stability (mouse) % rem. 60 min” value is “E (% remaining = 0-25%)”. The molecule also registered a microsomal CLint at 0.1 uM in data set [1] above 116 µL/min/mg. Further, the IC50 is below 0.5 nM in data set [2] and below 100 nM in data set [3]. For the same molecule, the 50% effective concentration (EC50) in data set [4] (setting [5]) and in data set [4] (setting [7]) was 1000 to 10000 nM throughout.
Take `COc1cnc(N[C@H]2CC[C@@H](Oc3nc(N4CCOCC4)cc4ncc(N)cc34)CC2)nc1` [Compound 202, 5-(((1s,4s)-4-((5-methoxypyrimidin-2-yl)amino)cyclohexyl)oxy)-7-morpholino-1,6-naphthyridin-3-amine]: in data set [1], the “Microsomal Stability (mouse) % rem. 60 min” value was “E (% remaining = 0-25%)”. In data set [1], this molecule registered an intrinsic metabolic clearance (microsomal CLint) at 0.1 uM above 116 µL/min/mg. Moreover, the half-inhibitory concentration (IC50) in data set [2] is below 0.5 nM; in data set [3] it was below 100 nM. Further, the half-maximal effective concentration (EC50) in data set [4] (setting [5]) and in data set [4] (setting [7]) was 1000 to 10000 nM throughout.

(Values after US20240246960A1 (adMare Therapeutics Society, priority 2021, published 2024).)
